Data taken from patent publication US20040034093A1, “Methods for enhancing motor performance and/or endurance” (priority 2002, published 2004).

Key:
[1] = tested on: iron-induced lipid peroxidation and occlusive thrombus formation; settings: Saldeen et al., 1999; cited from earlier work
[2] = tested on: Normal, nontransgenic (NonTg) C57/B6 mice; assay: rotorod performance task (motor function); assay type: in vivo; settings: diet supplemented with additional 200 mg/kg tocopherol from 40 days of age; versus basal diet or α-tocopherol supplemented diet
Description: Normal, nontransgenic (NonTg) C57/B6 mice were studied for efficacy of γT on motor performance and/or enhanced muscle function. Beginning at 40 days of age, animals were fed a basal AIN93G laboratory animal diet containing 75 mg/kg α-tocopherol and negligible γ-tocopherol; or the same diet supplemented with an additional 200 mg/kg α-tocopherol or γ-tocopherol. Motor function was measured by a standard rotorod performance task (Klivenyi et al., 1999). Animals were placed on a motorized, rubber-coated metal rod that was set to rotate at 1 rpm increasing by 1 rpm every 10 seconds (Klivenyi et al., 1999). The speed of the rod rotation at which the mouse falls off is taken as a measure of motor competency (Klivenyi et al., 1999). Each mouse was tested in three trials every 10 days.

[3] = liposomal tocopherol exposed to synthetic peroxynitrite (Christen et al., 1997); cited from earlier work
[4] = relative to the corresponding reaction of αT (Cooney et al., 1993); cited from earlier work
[5] = cited from earlier work; for absorption by the gut: Traber et al., 1992
[6] = tested on: methylcholanthrene-treated C3H/10T1/2 fibroblasts; settings: methylcholanthrene-treated C3H/10T1/2 fibroblasts (Cooney et al., 1993); cited from earlier work
[7] = tested on: tocopherol-depleted rats; settings: rats fed tocopherol for two weeks after chronic iron-dextran (Dillard et al., 1983); cited from earlier work
[8] = tested on: humans; settings: limited trials in humans (Clarkson 1995; Powers and Lennon 1999); cited from earlier work
[9] = tested on: rodent; settings: rodent (Novelli et al., 1990); cited from earlier work

Cc1c(O)cc2c(c1C)O[C@](C)(CCC[C@H](C)CCC[C@H](C)CCCC(C)C)CC2 [γ-tocopherol]
potency at inhibition of iron-induced lipid peroxidation and occlusive thrombus formation relative to αT [1]: 20-30 times
capability of performing the motor function task (rotorod) [2]: significantly more capable of performing the motor function task
effectiveness at inhibiting lipid hydroperoxide formation relative to αT [3]: twice as effective
rate of in vitro reaction with NO2 gas relative to αT [4]: 6 times
absorption by the gut [5]: absorbed equally well
packaging into lipoproteins ([5]; relative to αT (Traber et al., 1992)): less effectively
effectiveness at inhibiting neoplastic transformation relative to αT [6]: 4 fold
effectiveness at inhibiting systemic lipid oxidation relative to αT [7]: approximately 35%
inhibition of systemic lipid oxidation [7]: inhibited systemic lipid oxidation

Cc1c(C)c2c(c(C)c1O)CC[C@@](C)(CCC[C@H](C)CCC[C@H](C)CCCC(C)C)O2 [α-tocopherol, reference compound]
absorption by the gut [5]: absorbed equally well
muscle endurance [8]: did not extend muscle endurance
endurance during a swimming test [9]: extended rodent endurance
inhibition of systemic lipid oxidation [7]: inhibited systemic lipid oxidation
